Reference: patent US12227496B2 (BRISTOL-MYERS SQUIBB COMPANY, priority 2019, dated 2025)

biological target: T1, human FXR (Homo sapiens, UniProt Q96RI1); test: transient human FXR/Gal4-luciferase reporter assay; type: cell-based; conditions: Gal4-hFXR LBD fusion, luciferase reporter in HEK293 cells; response relative to 8 μM GW-4064
T1 construct: expressed in transfected cells; host or cells: HEK293 cells stably carrying a 5xGal4-response-element firefly luciferase reporter, transiently transfected with pcDNA3.1-Gal4-FXR
T1 sequence (Q96RI1 262-486 limits assumed): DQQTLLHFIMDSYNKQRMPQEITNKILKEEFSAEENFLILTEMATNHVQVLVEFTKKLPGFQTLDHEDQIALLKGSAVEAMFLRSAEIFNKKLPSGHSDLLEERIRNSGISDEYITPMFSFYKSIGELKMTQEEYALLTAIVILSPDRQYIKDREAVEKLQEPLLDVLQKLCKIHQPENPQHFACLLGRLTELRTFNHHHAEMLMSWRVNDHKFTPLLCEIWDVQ
Protocol: A Gal4-hFXR fusion construct reporter system was used as the primary assay to characterize compound activity. A construct including 5 copies of the Gal4 promoter response element upstream of a firefly luciferase reporter cDNA was stably expressed in HEK293 cells. This reporter cell line was maintained in Dulbecco's Modified Eagle's medium (DMEM; Gibco) supplemented with 1% penicillin-streptomycin (P/S) solution, 500 μg/mL Zeocin and 10% charcoal/dextran-treated fetal bovine serum (cs-FBS) at 37° C. in a humidified 5% CO2 atmosphere. […] The day prior to transfection, the reporter cells in culture are detached from the plate with trypsin and plated into a T75 flask at a sufficient density to achieve approximately 90% confluence the next morning. […] The mixture is further diluted with 10 mL of a solution comprised of DMEM, 10% cs-FBS, and 1% P/S immediately prior to transferring to the cells. The maintenance culture media is aspirated from the cells and the final transfection mixture is added before the cells are incubated overnight at 37° C. in a humidified 5% CO2 atmosphere. This protocol can be scaled up, and the transiently transfected cells can be cryopreserved in an assay-ready format. For compound testing, 100 nL of the compounds (serial dilutions in DMSO) are dispensed with an Echo acoustic dispenser (Labcyte) into the wells of a Corning/Costar clear bottom 384-well white plate. The transfected cells are harvested, counted, and diluted such that 10-25,000 cells in 25 μL are plated into each well of the 384-well compound assay plate. The compound-treated cells are incubated overnight at 37° C. in a humidified 5% CO2 atmosphere. The next morning 25 μL of Steady-Glo (Promega) are added to each well of the plate, the mixture is incubated for 15 min. with shaking, and luminescence is measured on an Envision (Perkin Elmer) plate reader.

| EC50 [nM] | SMILES |
| --- | --- |
| 226 | O=C(C1CCCOC1)N(CC12CCC(c3nc(C4CC4)no3)(CC1)CC2)c1cccc(-c2nc(C3CC3)no2)c1 (racemic) [Example 16, N-((4-(3-cyclopropyl-1,2,4-oxadiazol-5-yl)bicyclo[2.2.2]octan-1-yl)methyl)-N-(3-(3-cyclopropyl-1,2,4-oxadiazol-5-yl)phenyl)tetrahydro-2H-pyran-3-carboxamide] |
| 74 | O=C(C1CCCOC1)N(CC12CCC(c3nc(C4CC4)no3)(CC1)CC2)c1cccc(-c2cnc(C3CC3)o2)c1 (racemic) [Example 25, N-((4-(3-cyclopropyl-1,2,4-oxadiazol-5-yl)bicyclo[2.2.2]octan-1-yl)methyl)-N-(3-(2-cyclopropyloxazol-5-yl)phenyl)tetrahydro-2H-pyran-3-carboxamide] |
| 929 | O=C(C1CCCOC1)N(CC12CCC(c3nc(C4CC4)no3)(CC1)CC2)c1cccc(-c2nnc(C3CC3)o2)c1 (racemic) [Example 55, N-((4-(3-cyclopropyl-1,2,4-oxadiazol-5-yl)bicyclo[2.2.2]octan-1-yl)methyl)-N-(3-(5-cyclopropyl-1,3,4-oxadiazol-2-yl)phenyl)tetrahydro-2H-pyran-3-carboxamide] |
| 3810 | CC1(C)CCCN(C(=O)N(CC23CCC(c4nc(C5CC5)no4)(CC2)CC3)c2cccc(-c3nc(C4CC4)no3)c2)C1 (racemic) [Example 62, N-((4-(3-cyclopropyl-1,2,4-oxadiazol-5-yl)bicyclo[2.2.2]octan-1-yl)methyl)-N-(3-(3-cyclopropyl-1,2,4-oxadiazol-5-yl)phenyl)-3,3-dimethylpiperidine-1-carboxamide] |
| 740 | O=C(N1CCCC(CO)C1)N(CC12CCC(c3nc(C4CC4)no3)(CC1)CC2)c1cccc(-c2nc(C3CC3)no2)c1 (racemic) [Example 65, N-((4-(3-cyclopropyl-1,2,4-oxadiazol-5-yl)bicyclo[2.2.2]octan-1-yl)methyl)-N-(3-(3-cyclopropyl-1,2,4-oxadiazol-5-yl)phenyl)-3-(hydroxymethyl)piperidine-1-carboxamide] |
| 1250 | O=C(C1CCCOC1)N(CC12CCC(c3nc(C4CC4)cs3)(CC1)CC2)c1cccc(-c2nc(C3CC3)no2)c1 (racemic) [Example 66, N-(3-(3-cyclopropyl-1,2,4-oxadiazol-5-yl)phenyl)-N-((4-(4-cyclopropylthiazol-2-yl)bicyclo[2.2.2]octan-1-yl)methyl)tetrahydro-2H-pyran-3-carboxamide] |
| 256 | Cn1nc(C23CCC(CN(C(=O)C4CCCOC4)c4cccc(-c5nc(C6CC6)no5)c4)(CC2)CC3)cc1C1CC1 (racemic) [Example 67, N-(3-(3-cyclopropyl-1,2,4-oxadiazol-5-yl)phenyl)-N-((4-(5-cyclopropyl-1-methyl-1H-pyrazol-3-yl)bicyclo[2.2.2]octan-1-yl)methyl)tetrahydro-2H-pyran-3-carboxamide] |
| 4100 | Cn1cc(-c2cccc(N(CC34CCC(c5nc(C6CC6)no5)(CC3)CC4)C(=O)C3CCCOC3)c2)nc1C1CC1 (racemic) [Example 68, N-((4-(3-cyclopropyl-1,2,4-oxadiazol-5-yl)bicyclo[2.2.2]octan-1-yl)methyl)-N-(3-(2-cyclopropyl-1-methyl-1H-imidazol-4-yl)phenyl)tetrahydro-2H-pyran-3-carboxamide] |
| 589 | O=C(C1CCCOC1)N(CC12CCC(c3nc(C4CC4)no3)(CC1)CC2)c1cccc(-c2nc3cc(F)ccc3o2)c1 (racemic) [Example 92, N-((4-(3-cyclopropyl-1,2,4-oxadiazol-5-yl)bicyclo[2.2.2]octan-1-yl)methyl)-N-(3-(5-fluorobenzo[d]oxazol-2-yl)phenyl)tetrahydro-2H-pyran-3-carboxamide] |

Second part, the molecule before the results:

| SMILES | EC50 [nM] |
| --- | --- |
| CCCc1ncc(-c2cccc(N(CC34CCC(c5nc(C6CC6)no5)(CC3)CC4)C(=O)C3CCCOC3)c2)o1 (racemic) [Example 30, N-((4-(3-cyclopropyl-1,2,4-oxadiazol-5-yl)bicyclo[2.2.2]octan-1-yl)methyl)-N-(3-(2-propyloxazol-5-yl)phenyl)tetrahydro-2H-pyran-3-carboxamide] | 145 |
| CCn1cc(-c2cccc(N(CC34CCC(c5nc(C6CC6)no5)(CC3)CC4)C(=O)C3CCCOC3)c2)oc1=O (racemic) [Example 52, N-((4-(3-cyclopropyl-1,2,4-oxadiazol-5-yl)bicyclo[2.2.2]octan-1-yl)methyl)-N-(3-(3-ethyl-2-oxo-2,3-dihydrooxazol-5-yl)phenyl)tetrahydro-2H-pyran-3-carboxamide] | 1330 |
| CCc1noc(-c2cccc(N(C(=O)C3CCCCC3)C(C)C34CCC(c5nc(C)no5)(CC3)CC4)c2)n1 (single isomer, unassigned) [Example 70, N-(3-(3-ethyl-1,2,4-oxadiazol-5-yl)phenyl)-N-(1-(4-(3-methyl-1,2,4-oxadiazol-5-yl)bicyclo[2.2.2]octan-1-yl)ethyl)cyclohexanecarboxamide] | 1500 |
| CCc1noc(-c2cccc(N(C(=O)C3CCCCC3)C(C)C34CCC(c5nc(C)no5)(CC3)CC4)c2)n1 (single isomer, unassigned) [Example 71, N-(3-(3-ethyl-1,2,4-oxadiazol-5-yl)phenyl)-N-(1-(4-(3-methyl-1,2,4-oxadiazol-5-yl)bicyclo[2.2.2]octan-1-yl)ethyl)cyclohexanecarboxamide] | 547 |
| COc1cccc(-c2cccc(N(C(=O)C3CCCCC3)C(C)C34CCC(c5nc(C)no5)(CC3)CC4)c2)c1 (single isomer, unassigned) [Example 94, N-(3′-methoxy-[1,1′-biphenyl]-3-yl)-N-(1-(4-(3-methyl-1,2,4-oxadiazol-5-yl)bicyclo[2.2.2]octan-1-yl)ethyl)cyclohexanecarboxamide] | 3940 |
| COc1cccc(-c2cccc(N(C(=O)C3CCCCC3)C(C)C34CCC(c5nc(C)no5)(CC3)CC4)c2)c1 (single isomer, unassigned) [Example 95, N-(3′-methoxy-[1,1′-biphenyl]-3-yl)-N-(1-(4-(3-methyl-1,2,4-oxadiazol-5-yl)bicyclo[2.2.2]octan-1-yl)ethyl)cyclohexanecarboxamide] | 6670 |
| COC(=O)C1CC1c1cccc(N(CC23CCC(c4nc(C)no4)(CC2)CC3)C(=O)C2CCCCC2)c1 (single isomer, unassigned) [Example 101, Methyl 2-(3-(N-((4-(3-methyl-1,2,4-oxadiazol-5-yl)bicyclo[2.2.2]octan-1-yl)methyl)cyclohexanecarboxamido)phenyl)cyclopropane-1-carboxylate] | 245 |
| COC(=O)C1CC1c1cccc(N(CC23CCC(c4nc(C)no4)(CC2)CC3)C(=O)C2CCCCC2)c1 (single isomer, unassigned) [Example 102, Methyl 2-(3-(N-((4-(3-methyl-1,2,4-oxadiazol-5-yl)bicyclo[2.2.2]octan-1-yl)methyl)cyclohexanecarboxamido)phenyl)cyclopropane-1-carboxylate] | 518 |
| CCOc1ccc(-c2cccc(N(CC34CCC(c5nc(C(C)(C)C)no5)(CC3)CC4)C(=O)C3CCC(OC)CC3)c2)cc1 (single isomer, unassigned) [Example 145, N-((4-(3-(tert-butyl)-1,2,4-oxadiazol-5-yl)bicyclo[2.2.2]octan-1-yl)methyl)-N-(4′-ethoxy-[1,1′-biphenyl]-3-yl)-4-methoxycyclohexane-1-carboxamide] | 303 |
| CCOc1ccc(-c2cccc(N(CC34CCC(c5nc(C(C)(C)C)no5)(CC3)CC4)C(=O)C3CCC(OC)CC3)c2)cc1 (single isomer, unassigned) [Example 146, N-((4-(3-(tert-butyl)-1,2,4-oxadiazol-5-yl)bicyclo[2.2.2]octan-1-yl)methyl)-N-(4′-ethoxy-[1,1′-biphenyl]-3-yl)-4-methoxycyclohexane-1-carboxamide] | 402 |
| CCOc1ccc(-c2cc(N(CC34CCC(c5noc(C(C)(F)F)n5)(CC3)CC4)C(=O)C3CCC(O)(C(F)(F)F)CC3)ccc2F)cc1 (single isomer, unassigned) [Example 164, N-((4-(5-(1,1-difluoroethyl)-1,2,4-oxadiazol-3-yl)bicyclo[2.2.2]octan-1-yl)methyl)-N-(4′-ethoxy-6-fluoro-[1,1′-biphenyl]-3-yl)-4-hydroxy-4-(trifluoromethyl)cyclohexane-1-carboxamide] | 271 |
